Experimental data: US20240317744A1, “Bicyclic Ureas As Kinase Inhibitors” (Incyte Corporation, priority 2023, published 2024)

Columns and labels:
[1] = target: T1, catalytic domain (JH1, amino acids 826-1132) of human JAK2 (Homo sapiens, UniProt O60674); assay: JAK2 LanthaScreen JH1 Binding Assay; settings: JAK2 JH1 1.5 nM, 50 nM tracer, 2 hours at 25° C.; read-out: JH1 BIND
T1 construct: catalytic domain (JH1, amino acids 826-1132) of human JAK2; FLAG (N); biotin (biotinylated); purchased Carna Biosciences 08-445-20N; host or cells: baculovirus expression system
Method in brief: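 FLAG-tagged, biotinylated JAK2 JH1 (aa 826-1132, baculovirus-expressed; 1.5 nM) incubated 2 h at 25° C with compounds, 50 nM fluorescent tracer and 0.5 nM Streptavidin-Tb in Tris pH 7.5 buffer with MgCl2, Brij-35, BSA, EGTA, glycerol, DTT. Nonspecific binding defined with 2 mM ATP; TR-FRET IC50 from four-parameter fit.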

[2] = target: T2, pseudo-kinase domain (JH2, amino-acids 536-812) of human Wild Type JAK2 (Homo sapiens, UniProt O60674, F794H/W659A/W777A); assay: JAK2 LanthaScreen JH2-WT Binding Assay; settings: JAK2 JH2-WT 0.145 nM, 50 nM tracer, 1 hour at 25° C.; read-out: JH2 BIND WT
T2 construct: pseudo-kinase domain (JH2, amino-acids 536-812 with 3 surface mutations W659A, W777A, F794H); His (C); purchased BPS Bioscience 79463; host or cells: baculovirus expression system
Method in brief: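 Biotinylated His-Avi-tagged JAK2 JH2 (0.145 nM), baculovirus-expressed, incubated with compounds, 50 nM fluorescent JH2 tracer and 0.25 nM streptavidin-Tb, 1 h at 25° C in pH 7.5 Tris buffer with MgCl2 and DTT. Non-specific binding defined with 2 mM ATP. TR-FRET read; IC50 from four-parameter fit.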

[3] = target: catalytic domain (JH1, amino acids 808-1132) of human JAK2 (Homo sapiens, UniProt O60674); assay: JAK2 HTRF Enzyme Activity Assay; assay type: biochemical; settings: ATP 30 µM, 60 minutes at 25° C.; read-out: V617F ENZ 30 UM
[4] = target: T3, pseudo-kinase domain (JH2, amino-acids 536-812) of human V617F mutant JAK2 (Homo sapiens, UniProt O60674, F794H/V617F/W659A/W777A); assay: JAK2 LanthaScreen JH2-V617F Binding Assay; settings: JAK2 JH2-V617F 0.26 nM, 50 nM tracer, 1 hour at 25° C.; read-out: JH2 BIND V617F
T3 construct: pseudo-kinase domain (JH2, amino-acids 536-812 with 3 surface mutations W659A, W777A, F794H); His (C); purchased BPS Bioscience 79498; host or cells: baculovirus expression system
Method in brief: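 IC50 values came from four-parameter dose-response fits of LanthaScreen signal, read after compounds sat 1 hour at 25° C with 0.26 nM baculovirus-expressed biotinylated protein, 50 nM fluorescent tracer and 0.25 nM streptavidin-Tb cryptate. Non-specific binding was set with 2 mM ATP.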

T1 sequence (O60674 826-1132): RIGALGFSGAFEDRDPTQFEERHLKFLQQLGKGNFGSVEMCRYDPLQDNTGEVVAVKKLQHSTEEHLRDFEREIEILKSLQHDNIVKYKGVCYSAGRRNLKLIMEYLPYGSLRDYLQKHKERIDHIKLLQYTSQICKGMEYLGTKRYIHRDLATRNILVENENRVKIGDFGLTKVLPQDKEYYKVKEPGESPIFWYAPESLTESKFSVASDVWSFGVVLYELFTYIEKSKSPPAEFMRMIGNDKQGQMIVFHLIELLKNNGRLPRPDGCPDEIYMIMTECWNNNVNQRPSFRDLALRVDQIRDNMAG
Chain of catalytic domain (JH1, amino acids 808-1132) of human JAK2 (O60674 808-1132 limits assumed): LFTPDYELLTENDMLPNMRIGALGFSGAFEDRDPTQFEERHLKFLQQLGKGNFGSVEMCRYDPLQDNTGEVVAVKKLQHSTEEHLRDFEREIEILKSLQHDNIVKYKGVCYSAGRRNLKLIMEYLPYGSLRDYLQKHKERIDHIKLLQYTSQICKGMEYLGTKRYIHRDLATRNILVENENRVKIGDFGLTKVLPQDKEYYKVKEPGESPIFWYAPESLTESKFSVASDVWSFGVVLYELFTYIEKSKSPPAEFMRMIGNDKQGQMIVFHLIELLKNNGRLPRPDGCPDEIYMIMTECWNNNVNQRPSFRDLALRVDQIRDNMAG
T2 sequence (O60674 536-812 W659A/W777A/F794H): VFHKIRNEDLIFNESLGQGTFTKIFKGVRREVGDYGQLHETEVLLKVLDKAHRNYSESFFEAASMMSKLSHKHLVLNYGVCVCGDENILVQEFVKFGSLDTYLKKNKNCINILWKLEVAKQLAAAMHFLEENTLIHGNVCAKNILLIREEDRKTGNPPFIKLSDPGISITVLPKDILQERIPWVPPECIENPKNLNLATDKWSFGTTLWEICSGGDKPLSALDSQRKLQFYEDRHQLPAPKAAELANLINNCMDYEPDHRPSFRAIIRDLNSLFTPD
T3 sequence (O60674 536-812 V617F/W659A/W777A/F794H): as the sequence (O60674 536-812 W659A/W777A/F794H) above, with V82F counted along it

Structure (SMILES): COC(=O)N[C@@H]1CC[C@@H](n2c(=O)n(C)c3cnc(Nc4cc(NC(=O)OC5CC5)cc(OC)c4)cc32)C1 [Example 55, Methyl ((1R,3R)-3-(6-((3-((cyclopropoxycarbonyl)amino)-5-methoxyphenyl)amino)-3-methyl-2-oxo-2,3-dihydro-1H-imidazo[4,5-c]pyridin-1-yl)cyclopentyl)carbamate]
- IC50 [1]: > 1000 nM
- IC50 [2]: ≤ 10 nM
- IC50 [3]: > 1000 nM
- IC50 [4]: 10 to 100 nM

Structure (SMILES): COC(=O)N[C@@H]1CC[C@@H](n2c(=O)n(C)c3cnc(Nc4cc(NC(=O)OC5CCC5)cc(-c5cnn(C)c5)c4)cc32)C1 [Example 56, Methyl ((1R,3R)-3-(6-((3-((cyclobutoxycarbonyl)amino)-5-(1-methyl-1H-pyrazol-4-yl)phenyl)amino)-3-methyl-2-oxo-2,3-dihydro-1H-imidazo[4,5-c]pyridin-1-yl)cyclopentyl)carbamate]
- IC50 [1]: > 1000 nM
- IC50 [2]: ≤ 10 nM
- IC50 [3]: > 1000 nM
- IC50 [4]: ≤ 10 nM

Structure (SMILES): COC(=O)N[C@@H]1CC[C@@H](n2c(=O)n(C)c3cnc(Nc4cc(NC(=O)C5CC5)cc(-c5cnn(C)c5)c4)cc32)C1 [Example 57, Methyl ((1R,3R)-3-(6-((3-(cyclopropanecarboxamido)-5-(1-methyl-1H-pyrazol-4-yl)phenyl)amino)-3-methyl-2-oxo-2,3-dihydro-1H-imidazo[4,5-c]pyridin-1-yl)cyclopentyl)carbamate]
- IC50 [1]: > 1000 nM
- IC50 [2]: ≤ 10 nM
- IC50 [3]: > 1000 nM
- IC50 [4]: ≤ 10 nM

Structure (SMILES): [2H]C([2H])([2H])n1c(=O)n([C@@H]2CC[C@@H](NC(=O)OC)C2)c2cc(Nc3ccc4cccc(C5(C)CC5)c4n3)ncc21 [Example 58, Methyl ((1R,3R)-3-(3-(methyl-d3)-6-((8-(1-methylcyclopropyl)quinolin-2-yl)amino)-2-oxo-2,3-dihydro-1H-imidazo[4,5-c]pyridin-1-yl)cyclopentyl)carbamate]
- IC50 [1]: > 1000 nM
- IC50 [2]: ≤ 10 nM
- IC50 [3]: > 1000 nM
- IC50 [4]: ≤ 10 nM

Structure (SMILES): [2H]C([2H])([2H])n1cc(-c2cnc3ccc(Nc4cc5c(cn4)n(C)c(=O)n5[C@@H]4CC[C@@H](NC(=O)OC)C4)nn23)c(F)n1 [Example 59, Methyl ((1R,3R)-3-(6-((3-(3-fluoro-1-(methyl-d3)-1H-pyrazol-4-yl)imidazo[1,2-b]pyridazin-6-yl)amino)-3-methyl-2-oxo-2,3-dihydro-1H-imidazo[4,5-c]pyridin-1-yl)cyclopentyl)carbamate]
- IC50 [1]: > 1000 nM
- IC50 [2]: ≤ 10 nM
- IC50 [3]: > 1000 nM
- IC50 [4]: ≤ 10 nM

Structure (SMILES): Cn1cc(-c2cc(NC(=O)OC3CCC3)cc(Nc3cc4c(cn3)n(C)c(=O)n4C3CCCC3)c2)cn1 [Example 60, Cyclobutyl (3-((1-cyclopentyl-3-methyl-2-oxo-2,3-dihydro-1H-imidazo[4,5-c]pyridin-6-yl)amino)-5-(1-methyl-1H-pyrazol-4-yl)phenyl)carbamate]
- IC50 [1]: > 1000 nM
- IC50 [2]: 10 to 100 nM
- IC50 [3]: > 1000 nM
- IC50 [4]: 10 to 100 nM

Structure (SMILES): Cn1c(=O)n(C2CCCC2)c2cc(Nc3cc(NC(=O)OC4CCC4)cc(-c4cnn(C5CC5)c4)c3)ncc21 [Example 61, Cyclobutyl (3-((1-cyclopentyl-3-methyl-2-oxo-2,3-dihydro-1H-imidazo[4,5-c]pyridin-6-yl)amino)-5-(1-cyclopropyl-1H-pyrazol-4-yl)phenyl)carbamate]
- IC50 [1]: > 1000 nM
- IC50 [2]: 10 to 100 nM
- IC50 [3]: > 1000 nM
- IC50 [4]: 100 to 500 nM

Structure (SMILES): Cn1c(=O)n(C2CCOC2)c2cc(Nc3cc(NC(=O)OC4CCC4)cc(-c4cnn(C5CC5)c4)c3)ncc21 (stereo not shown) [Example 62, Cyclobutyl (3-(1-cyclopropyl-1H-pyrazol-4-yl)-5-((3-methyl-2-oxo-1-(tetrahydrofuran-3-yl)-2,3-dihydro-1H-imidazo[4,5-c]pyridin-6-yl)amino)phenyl)carbamate]
- IC50 [1]: > 1000 nM
- IC50 [2]: 100 to 500 nM
- IC50 [3]: > 1000 nM
- IC50 [4]: 100 to 500 nM

Structure (SMILES): [2H]C([2H])([2H])n1c(=O)n([C@@H]2CC[C@@H](NC(=O)OC)C2)c2cc(Nc3cc(COC4CCC4)cc(-c4ccc5c(c4)OCCO5)n3)ncc21 [Example 63, Methyl ((1R,3R)-3-(6-((4-(cyclobutoxymethyl)-6-(2,3-dihydrobenzo[b][1,4]dioxin-6-yl)pyridin-2-yl)amino)-3-(methyl-d3)-2-oxo-2,3-dihydro-1H-imidazo[4,5-c]pyridin-1-yl)cyclopentyl)carbamate]
- IC50 [1]: > 1000 nM
- IC50 [2]: ≤ 10 nM
- IC50 [3]: > 1000 nM
- IC50 [4]: 10 to 100 nM

Structure (SMILES): COC(=O)N[C@@H]1CC[C@@H](n2c(=O)n(C)c3cnc(Nc4cccc(N5CCC(N)C5)n4)cc32)C1 (stereo partly drawn) [Example 64, Methyl ((1R,3R)-3-(6-((6-(3-aminopyrrolidin-1-yl)pyridin-2-yl)amino)-3-methyl-2-oxo-2,3-dihydro-1H-imidazo[4,5-c]pyridin-1-yl)cyclopentyl)carbamate]
- IC50 [1]: > 1000 nM
- IC50 [2]: 10 to 100 nM
- IC50 [3]: > 1000 nM
- IC50 [4]: 10 to 100 nM

Structure (SMILES): [2H]C([2H])([2H])n1c(=O)n([C@@H]2CC[C@@H](NC(=O)OC)C2)c2cc(Nc3cc(CNC4CCCC4)cc(-c4ccc5c(c4)OCCO5)n3)ncc21 [Example 65, Methyl ((1R,3R)-3-(6-((4-((cyclopentylamino)methyl)-6-(2,3-dihydrobenzo[b][1,4]dioxin-6-yl)pyridin-2-yl)amino)-3-(methyl-d3)-2-oxo-2,3-dihydro-1H-imidazo[4,5-c]pyridin-1-yl)cyclopentyl)carbamate]
- IC50 [1]: > 1000 nM
- IC50 [2]: ≤ 10 nM
- IC50 [3]: > 1000 nM
- IC50 [4]: ≤ 10 nM

Structure (SMILES): COC(=O)N[C@@H]1CC[C@@H](n2c(=O)n(C)c3cnc(Nc4ccnc(N5CCCCC5)n4)cc32)C1 [Example 66, Methyl ((1R,3R)-3-(3-methyl-2-oxo-6-((2-(piperidin-1-yl)pyrimidin-4-yl)amino)-2,3-dihydro-1H-imidazo[4,5-c]pyridin-1-yl)cyclopentyl)carbamate]
- IC50 [1]: > 1000 nM
- IC50 [2]: ≤ 10 nM
- IC50 [3]: > 1000 nM
- IC50 [4]: 10 to 100 nM

Structure (SMILES): COC(=O)N[C@@H]1CC[C@@H](n2c(=O)n(C)c3cnc(Nc4cc(C)cc(-c5ccnc(OC)c5)n4)cc32)C1 [Example 67, Methyl ((1R,3R)-3-(6-((2′-methoxy-4-methyl-[2,4′-bipyridin]-6-yl)amino)-3-methyl-2-oxo-2,3-dihydro-1H-imidazo[4,5-c]pyridin-1-yl)cyclopentyl)carbamate]
- IC50 [1]: > 1000 nM
- IC50 [2]: ≤ 10 nM
- IC50 [3]: > 1000 nM
- IC50 [4]: ≤ 10 nM

Structure (SMILES): COC(=O)N[C@@H]1CC[C@@H](n2c(=O)n(C)c3cnc(Nc4nc(-c5ccncc5)cs4)cc32)C1 [Example 68, Methyl ((1R,3R)-3-(3-methyl-2-oxo-6-((4-(pyridin-4-yl)thiazol-2-yl)amino)-2,3-dihydro-1H-imidazo[4,5-c]pyridin-1-yl)cyclopentyl)carbamate]
- IC50 [1]: > 1000 nM
- IC50 [2]: 500 to 1000 nM
- IC50 [3]: > 1000 nM
- IC50 [4]: 500 to 1000 nM

Structure (SMILES): COC(=O)N[C@@H]1CC[C@@H](n2c(=O)n(C)c3cnc(Nc4ccc(F)c(-c5ccc(C(F)(F)F)nc5)n4)cc32)C1 [Example 69, Methyl ((1R,3R)-3-(6-((3-fluoro-6′-(trifluoromethyl)-[2,3′-bipyridin]-6-yl)amino)-3-methyl-2-oxo-2,3-dihydro-1H-imidazo[4,5-c]pyridin-1-yl)cyclopentyl)carbamate]
- IC50 [1]: > 1000 nM
- IC50 [2]: ≤ 10 nM
- IC50 [3]: > 1000 nM
- IC50 [4]: ≤ 10 nM

Structure (SMILES): [2H]C([2H])([2H])n1c(=O)n([C@@H]2CC[C@@H](NC(=O)OC)C2)c2cc(Nc3cc(CN4CC[C@H](F)C4)cc(-c4ccc5c(c4)OCCO5)n3)ncc21 [Example 70, Methyl ((1R,3R)-3-(6-((6-(2,3-dihydrobenzo[b][1,4]dioxin-6-yl)-4-(((S)-3-fluoropyrrolidin-1-yl)methyl)pyridin-2-yl)amino)-3-(methyl-d3)-2-oxo-2,3-dihydro-1H-imidazo[4,5-c]pyridin-1-yl)cyclopentyl)carbamate]
- IC50 [1]: > 1000 nM
- IC50 [2]: ≤ 10 nM
- IC50 [3]: > 1000 nM
- IC50 [4]: ≤ 10 nM
